As usually defined, the viability, T/C is the ratio of treated to control. Usually IC50 stands for the midpoint of a concentration-inhibition curve.

The record followed here is PubChem BioAssay AID2060621 (Molecular Pharmacology Branch, DTP, NCI, 2025).

In the assay the test system is 324938-238-R-J1-PDC complex spheroids viability. Description: Anticancer human tumor 324938-238-R-J1-PDC patient-derived bladder carcinoma cell line growth inhibition [CLK]. The conditions noted are these: for viability, T/C: stronger effect = lower value; for IC50: curve of compound. The source says: A high-throughput screen of multi-cell type tumor spheroids was designed to identify active combinations of […] and targeted small molecules. Complex spheroids include a stromal component modeled by human endothelial cells (HUVEC) and fibroblasts modeled by human mesenchymal stem cells (MSCs). The concentration ranges selected for each drug and investigational agent were based upon clinically achievable concentrations if the clinical Cmax of the agent was known.
Compounds. The drugs and investigational agents: cirtuvivint (SM08502; NSC835563), CC-671 (NSC850746), vemurafenib (NSC761431), tapotoclax (NSC804041), sotorasib (NSC818433), adagrasib (NSC831453), MRTX-1133 (NSC836407), BAY2416964 (NSC825713), copanlisib (NSC816437), inavolisib (NSC800729), abemaciclib (NSC768073), osimertinib (NSC779217), entinostat (NSC756642), eltanexor (KPT-8602, NSC794443), venetoclax (NSC766270), ceralasertib (NSC777638), bortezomib (NSC756655), olaparib (NSC753686), talazoparib (NSC767125), alisertib (NSC759677), peposertib (NSC802822), gemcitabine (NSC613327), 5-fluorouracil (NSC19893), SN-38 (NSC673596), oxaliplatin (NSC266046), paclitaxel (NSC125973), and doxorubicin (NSC123127), were obtained from the National Cancer Institute (NCI) Developmental Therapeutics Program Chemical Repository. The FDA-approved anticancer drug set is available from the Developmental Therapeutics Program at https://dtp.cancer.gov/organization/dscb/obtaining/available plates.htm. […] The stock solutions were prepared in dimethyl sulfoxide (DMSO, Sigma-Aldrich, St. Louis, MO, cat. D2650), except for the platinum complexes which were prepared in saline (Quality Biological, Gaithersburg, MD, cat. 114-055-101), at 800-fold the tested concentration and stored at -70 degrees C prior to their use. All drugs and investigational agents were tested over a range starting from a high concentration at or near the clinical Cmax and decreasing in half-log increments. If the clinical Cmax for an agent had not been determined, the highest concentration tested was 10 microM.
Cell Culture. All cells were maintained in an incubator at 37 degrees C and 5% CO2 with 95% humidity. The PDC lines were cultured according to standard operating procedures established by the NCI PDMR. Briefly, all PDCs were thawed and cultured in Matrigel-coated flasks prepared with a working solution of 1X Ham's F-12 nutrient mix, without supplementation (Invitrogen, Waltham, MA, cat. 11765054), 100 U/mL penicillin-streptomycin (Invitrogen, cat. 15140122), and 2.5% Matrigel (Corning Inc., Corning, NY, cat. 354248) for the first three passages. The 947758-054-R-J2-PDC line was cultured in 6B/Colon 1A media, which includes advanced DMEM/F-12 (Thermo Fisher Scientific, cat. 12634028), 10 mM HEPES (Thermo Fisher Scientific, cat. 15630080), 1X GlutaMAX supplement (Thermo Fisher Scientific, cat. 35050061), 0.1 mg/mL primocin (InvivoGen, cat. ant-pm-2), 10% defined fetal bovine serum, heat inactivated (HyClone Laboratories Inc., cat. SH30070.03HI), 1.25 mM N-Acetyl-L-cysteine (Sigma-Aldrich, cat. A9165), 10 mM nicotinamide (Sigma-Aldrich, cat. N0636), 1X B-27 supplement (Thermo Fisher Scientific, cat. 17504044), 1X N-2 supplement (Thermo Fisher Scientific, cat. 17502048), and 10 microM Y-27632 dihydrochloride (Tocris Bioscience, cat. 1254). The 876862-298-R-J1-PDC was cultured in 6E media, which includes all 6B/Colon 1A media components plus 50% L-WRN conditioned media (ATCC, cat. CRL-3276), 50 ng/mL recombinant human EGF recombinant protein (hEGF; Thermo Fisher Scientific, cat. PHG0311), 10 ng/mL recombinant human fibroblast growth factor 10 (hGFG-10; PeproTech, cat. 100-26), 1 ng/mL recombinant human fibroblast growth factor 2 (hFGF-2; PeproTech, cat. 100-18B), and 1 µM prostaglandin E2 (PGE2; Tocris, cat. 2296). The 227483-062-R1-J1-PDC line was cultured in Panc media, containing all 6E components except hFGF-2, with the addition of 500 nM SB-431542 (Selleckchem, cat. S1067) and 10 nM gastrin (Tocris, cat. 3006). […]

“And” between values parts separate entries of the source, which are not always exact repeats. Equal entries are not always repeated. Where only a bound is given, the exact number is not on record here.
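Further: viability read after seven days of drug exposure.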
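Wherever viability, T/C is given: 100% = DMSO vehicle control wells.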

Take `CC1COCCN1c1cc(C2(S(C)(=N)=O)CC2)nc(-c2ccnc3[nH]ccc23)n1` (stereo unspecified): the IC50 is 1.78 µM and 1.44 µM. Further, the viability, T/C (compound 0.0316 µM) is 85.2% and 72.7%. The viability, T/C (compound 0.1 µM) was 86.7% and 79%. Besides, the viability, T/C (compound 0.316 µM) is 73.1% and 77.7%. For the same compound, the viability, T/C (compound 1 µM) was 68.5% and 59.5%. Besides, the viability, T/C (compound 3.16 µM) was 33.5% and 27.7%. Also, the viability, T/C (compound 10 µM) was 14.9% and 13%.
On to `COC1C=CCC(C)C(C)S(=O)(=O)NC(=O)c2ccc3c(c2)N(CC2CCC21)CC1(CCCc2cc(Cl)ccc21)CO3` (stereo unspecified), for which the IC50 is 0.227 µM and 0.16 µM. The viability, T/C (compound 0.0316 µM) was 73.8% and 71.3%. Also, the viability, T/C (compound 0.1 µM) was 78.3% and 65.3%. Where the note is “compound 0.316 µM”, the viability, T/C was 39.4% and 28.4%. In addition, the viability, T/C (compound 1 µM) is 21% and 21.4%. Further, the viability, T/C (compound 3.16 µM) is 17.9% and 14.6%. Moreover, the viability, T/C (compound 10 µM) is 10.5% and 7.78%.
On to `COc1ccc([C@@H](O)c2cc(-c3ncnc4cc(N5CCOCC5)ccc34)c(F)cc2Cl)nn1`, for which the 50% inhibitory concentration (IC50) was 3.3 µM and 3.51 µM. For the same compound, the viability, T/C (compound 0.0316 µM) was 78% and 79.6%. Under “compound 0.1 µM”, the viability, T/C is 81% and 88.1%. Also, under “compound 0.316 µM”, the viability, T/C was 68.9% and 55.6%. The viability, T/C (compound 1 µM) is 59.9% and 71%. Moreover, the viability, T/C (compound 3.16 µM) was 52.4% and 50.7%. In addition, the viability, T/C (compound 10 µM) is 37.4% and 36.7%.
With `COc1cccc2c1C(=O)c1c(O)c3c(c(O)c1C2=O)CC(O)(C(=O)CO)CC3OC1CC(N)C(O)C(C)O1` (stereo unspecified), the IC50 was less than 0.0316 µM. The viability, T/C (compound 0.0316 µM) was 18.6% and 20.6%. Also, the viability, T/C (compound 0.1 µM) was 12.3% and 18%. Besides, the viability, T/C (compound 0.316 µM) is 7.21% and 8.55%. For the setting “compound 1 µM”, the viability, T/C is 1.1% and 0.74%. The viability, T/C (compound 3.16 µM) is 0.07% and 0.13%. Also, under “compound 10 µM”, the viability, T/C was 0.18% and 0.15%.
As to `Nc1ccccc1NC(=O)c1ccc(CNC(=O)OCc2cccnc2)cc1`, the IC50 was 1.42 µM and 1.29 µM. Moreover, under “compound 0.0316 µM”, the viability, T/C was 90% and 75.9%. The viability, T/C (compound 0.1 µM) was 89.8% and 91.8%. Besides, the viability, T/C (compound 0.316 µM) is 83.1% and 73.8%. Moreover, the viability, T/C (compound 1 µM) was 58% and 50.5%. For the setting “compound 3.16 µM”, the viability, T/C is 29.4% and 33.5%. The viability, T/C (compound 10 µM) is 9.64% and 5.66%.
As to `Nc1ccn(C2OC(CO)C(O)C2(F)F)c(=O)n1` (stereo unspecified), the IC50 is less than 0.0316 µM. Where the note is “compound 0.0316 µM”, the viability, T/C is 27.6% and 25.4%. Moreover, the viability, T/C (compound 0.1 µM) is 12.5% and 15%. Further, for the setting “compound 0.316 µM”, the viability, T/C was 10.8% and 12.3%. Besides, the viability, T/C (compound 1 µM) is 10.8% and 13.3%. Moreover, the viability, T/C (compound 3.16 µM) was 8.49% and 10.3%. Moreover, for the setting “compound 10 µM”, the viability, T/C is 6.92% and 8.69%.
For `O=C(c1cc(Cc2n[nH]c(=O)c3ccccc23)ccc1F)N1CCN(C(=O)C2CC2)CC1`, the half-inhibitory concentration (IC50) is 4.35 µM and 4.65 µM. The viability, T/C (compound 0.0316 µM) is 73.8% and 84.1%. The viability, T/C (compound 0.1 µM) was 75.1% and 88.4%. Where the note is “compound 0.316 µM”, the viability, T/C was 71.4% and 72.4%. The viability, T/C (compound 1 µM) was 83.3% and 73.8%. In addition, where the note is “compound 3.16 µM”, the viability, T/C is 57% and 60.5%. Moreover, where the note is “compound 10 µM”, the viability, T/C is 31.8% and 31.7%.
As for `O=c1[nH]cc(F)c(=O)[nH]1`, the IC50 is 0.159 µM and 0.223 µM. Further, the viability, T/C (compound 0.0316 µM) was 83.8% and 80.7%. Also, the viability, T/C (compound 0.1 µM) was 66.9% and 79.9%. Also, the viability, T/C (compound 0.316 µM) was 24.9% and 37%. In addition, the viability, T/C (compound 1 µM) is 19.4% and 26%. Moreover, where the note is “compound 3.16 µM”, the viability, T/C was 16.1% and 20.8%. Further, under “compound 10 µM”, the viability, T/C is 16.1% and 20.9%.
